Laboratory results as given in patent publication US7074801B1, “Nitrogen-containing condensed cyclic compound having a pyrazolyl group as a substituent group and pharmaceutical composition thereof” (Eisai Co., Ltd., priority 2001, dated 2006).
Counter-ions that a name gives are not always drawn.

Tested on: STAT6
Test: Inhibitory test on STAT6 activation: IL-4-induced alkali phosphatase STAT6 reporter in 293 cells stably expressing the STAT6 gene and STAT6 reporter gene
Type: cell-based
Details: HEK293; Table 1; 1 ng/ml human recombinant IL-4, 16 hours, 293 cells with STAT6 reporter; read-out: Inhibitory activity IC50 (concentration at which the alkali phosphatase activity induced by IL-4 was inhibited by 50%)
Protocol: The inhibitory action of the present compound on activation of STAT6 was evaluated according to the following experiments.
1) Construction of a STAT6 Reporter Gene
An oligonucleotide of SEQ ID NO:1 in which three STAT6-binding regions on a human immunoglobulin germline E gene promoter had been linked was mixed with its complementary chain, thermally denatured and annealed, and 5′- and 3′-ends thereof were cleaved with restriction enzymes Kpn I (Code No. 1068A, Takara Shuzo) and Xba I (Code No. 1093A, Takara Shuzo) respectively, and the resulting fragment was cloned into a Kpn I/Xba I site of pUG-BGH-PLAP vector (described in Molecular Pharmacology, 49:860–873, 1996). To induce a basic transcriptional factor, a TK promoter region of herpes virus was cloned into an Xba I/Hind III (Code No. 1060A, Takara Shuzo) site of the pUG-BGH-PLAP vector. To obtain a stably expressing cell strain, a neomycin resistance gene (PGK-neo expression cassette) was integrated with an Sal I (Code No. 1080A, Takara Shuzo) of this vector. Cloning of the TK promoter and PGK-neo expression cassette was carried out according to Molecular Pharmacology, 49:860–873, 1996.
The underlined sites are a Kpn I recognition site and Xba I recognition site respectively. 2) Construction of an STAT6 Expression Vector
An oligonucleotide of SEQ ID NO:2 containing an initiation codon of STAT6 gene and an oligonucleotide of SEQ ID NO:3 containing a stop codon were used, and total RNA was prepared from human peripheral blood cells by using RNeasy Mini kit (Code No. 74104, OIAGEN). Then, cDNA was prepared by reverse transcription reaction using Takara RNA LA PCR kit (Code No. RR012A, Takara Shuzo) and then subjected to PCR reaction with primers of SEQ ID NOS:2 and 3, to amplify the STAT6 gene. • (SEQ ID NO:2) 5′-[…]-3′ The underlined site is an EcoR I recognition site. • (SEQ ID NO:3) 5′-[…]-3′ The underlined site is an Xho I recognition site.
The PCR product was digested with EcoR I (Code No. 1040A, Takara Shuzo) and Xho I (1094A, Takara Shuzo), and the digested fragment was isolated on an agarose gel. The isolated fragment was integrated into a vector fragment obtained by digesting pcDNA3.1 (+) (Code No. U790-20, Invitrogen) vector with EcoRI/Xho I.
3) Introduction of the Gene and Preparation of a Stably Expressing Cell Strain
Human fetal kidney-derived 293 cells (American Type Culture Collection), 3.0×10^5 cells, were spread on a Falcon tissue culture 6-well plate (Code No. 35-3046, Becton Dickinson) and cultured overnight. 1.5 μg of the prepared STAT6 reporter gene, 1.5 μg of the STAT6 gene and 20 μl of lipofectamine (Code No. 18324-012, GIBCO BRL) were mixed in 0.3 ml OPTI-MEM medium (Code No. 31985-070) and left at room temperature for 20 minutes. Thereafter, 1.2 ml OPTI-MEM medium was further added to the cells washed with OPTI-MEM medium not containing fetal bovine serum, and the cells were cultured for 2 hours. 1.5 ml medium containing fetal bovine serum was added thereto, and the cells were cultured for additional 19 hours. The medium was exchanged with a fresh one, and Geneticin (Code No. G-5013, SIGMA) was added at a concentration of 1 mg/ml, and the cells were cultured, and chemical-resistant cells were selected. The resulting chemical-resistant cells were floated in a medium containing 1 mg/ml Geneticin, then spread at a density of 0.5 cell/well on a 96-well microplate (Code No. 35-3072, Becton Dickinson) and cloned to give a clone expressing alkali phosphatase in response to IL-4.
4) Inhibitory Test on STAT6 Activation
The cells stably expressing the STAT6 gene and STAT6 reporter gene and expressing alkali phosphatase in response to IL-4 were spread at a density of 5000 cells/180 μl/well on a 96-well microplate (Code No. 35-3072, Becton Dickinson) and cultured overnight. […]

IC50 | Structure (SMILES)
< 10 nM | COC1CCN(c2ccnc3ccc(-c4c[nH]nc4C)cc23)CC1 [Example 230, 4-(4-Methoxypiperidino)-6-(3-methyl-1H-4-pyrazolyl)quinoline dihydrochloride]
< 10 nM | COc1nnc(-c2cnc3ccc(-c4c[nH]nc4-c4ccc(F)cc4F)cn23)s1 [Example 562, 6-[3-(2,4-Fluorophenyl)-1H-pyrazol-4-yl]-3-(5-methoxy[1,3,4]thiadiazol-2-yl)imidazo[1,2-a]pyridine]
< 10 nM | N#Cc1ccc(-c2n[nH]cc2-c2ccc3ncc(-c4ccc(CN5CCC[C@H]5C(N)=O)s4)n3c2)cc1 [Example 109, (2S)-1-{[(5-{6-[3-(4-Cyanophenyl)-1H-4-pyrazolyl]imidazo-[1,2-a]pyridin-3-yl}-2-thienyl)methyl]tetrahydro-1H-2-pyrrolecarboxyamidetrihydrochloride]
< 10 nM | N#Cc1ccc(-c2n[nH]cc2-c2ccc3ncn(-c4ccc(C#N)cn4)c3c2)cc1 [Example 148, 6-{6-[3-(4-Cyanophenyl)-1H-4-pyrazolyl]-1H-benzo[d]-imidazol-1-yl}nicotinonitrile trihydrochloride]
< 10 nM | O=C1CCc2cc(-c3cnc4ccc(-c5c[nH]nc5-c5ccc(F)cc5)cn34)ccc21 [Example 623, 5-{6-[3-(4-Fluorophenyl)-1H-4-pyrazolyl]imidazo[1,2-a]pyridin-3-yl}-1-indanone]
< 10 nM | c1ccc(-c2cnc3ccc(-c4c[nH]nc4-c4ccc(N5CCOCC5)cc4)cn23)nc1 [Example 539, 6-[3-(4-Morpholine-4-ylphenyl)-1H-pyrazol-4-yl]-3-(pyridin-2-yl)imidazo[1,2-a]pyridine]
< 10 nM | O=C(N1CCCC1)N1CCN(c2ccnc3ccc(-c4c[nH]nc4C(F)(F)F)cc23)CC1 [Example 224, Tetrahydro-1H-1-pyrrolyl{4-[6-(3-trifluoromethyl-1H-pyrazolyl)-4-quinolyl]piperazin-1-yl}methanone]
10 to 100 nM | Clc1ccccc1N1CCN(c2ncnc3ccc(-c4cn[nH]c4)cc23)CC1 [Example 287, 4-[4-(2-Chlorophenyl)piperazin-1-yl]-6-(1H-4-pyrazolyl)-quinazoline]
< 10 nM | O=C(Nc1ccc(Cl)cn1)c1ccc(-c2cnc3ccc(-c4cn[nH]c4)cn23)cc1F [Example 680, N1-(5-Chloro-2-pyridyl)-2-fluoro-4-[6-(1H-4-pyrazolyl)-imidazo[1,2-a]pyridin-3-yl]benzamide dihydrochloride]

Same assay, conditions: HEK293; Table 2; 1 ng/ml human recombinant IL-4, 16 hours, 293 cells with STAT6 reporter; read-out: Inhibitory activity IC50 (concentration at which the alkali phosphatase activity induced by IL-4 was inhibited by 50%)

IC50 | Structure (SMILES)
10 to 100 nM | c1nc(N2CCN(C3CCCCC3)CC2)c2cc(-c3cn[nH]c3)ccc2n1 [Example 957, 4-(4-Cyclohexylpiperazin-1-yl)-6-(1H-pyrazol-4-yl)quinazoline tri-trifluoroacetate]
< 10 nM | C[C@H](NC(=O)c1ccc(-n2cnc3ccc(-c4cn[nH]c4)cc32)cc1F)C(=O)c1ccc(F)cc1 [Example 729, N1-[(1S)-2-(4-Fluorophenyl-1-methyl-2-oxoethyl)-2-fluoro-4-[6-(1H-4-pyrazolyl)-1H-benzo[d]imidazol-1-yl]benzamide hydrochloride]
100 to 1000 nM | CN(c1ccccc1)S(=O)(=O)c1ccc(-c2ncnc3ccc(-c4c[nH]nc4-c4ccc(F)cc4)cc23)s1 [Example 856, 5-{6-[3-(4-Fluorophenyl)-1H-pyrazol-4-yl]quinazolin-4-yl}-thiophen-2-sulfonic acid methylphenylamide dihydrochloride]
< 10 nM | O=C(Nc1cccc(N2CCN(c3ncnc4ccc(-c5cn[nH]c5)cc34)CC2)c1)C1CC1 [Example 976, Cyclopropanecarboxylic acid (3-{4-[6-(1H-pyrazol-4-yl)quinazolin-4-yl]piperazin-1-yl}phenyl)amide tri-trifluoroacetate]
< 10 nM | Cc1cn(-c2ncnc3ccc(-c4c[nH]nc4-c4c(F)cccc4F)cc23)cn1 [Example 914, 6-[3-(2,6-Difluorophenyl)-1H-pyrazol-4-yl]-4-(4-methylimidazol-1-yl) quinazoline]
10 to 100 nM | COc1ccc(-c2ccc(-c3n[nH]cc3-c3ccc4ncnc(-c5ccc(S(C)(=O)=O)s5)c4c3)cc2)cn1 [Example 889, 6-{3-[4-(6-Methoxypyridin-3-yl)phenyl]-1H-pyrazol-4-yl}-4-(5-methylsulfonylthiophen-2-yl) quinazoline]
100 to 1000 nM | CS(=O)(=O)c1ccc(-c2ncnc3ccc(-c4c[nH]nc4CN4CCOCC4)cc23)s1 [Example 904, 4-(5-Methylsulfonylthiophen-2-yl)-6-(3-morpholin-4-ylmethyl-1H-pyrazol-4-yl) quinazoline]
< 10 nM | O=C(Nc1cccc(N2CCN(c3ncnc4ccc(-c5cn[nH]c5)cc34)CC2)c1)C1(c2ccccc2)CC1 [Example 978, 1-Phenylcyclopropanecarboxylic acid (3-{4-[6-(1H-pyrazol-4-yl)quinazolin-4-yl]piperazin-1-yl}phenyl)amide tri-trifluoroacetate]
< 10 nM | CS(=O)(=O)c1ccc(-c2ncnc3ccc(-c4c[nH]nc4-c4ccc(Cl)cc4F)cc23)s1 [Example 894, 6-[3-(4-Chloro-2-fluorophenyl)-1H-pyrazol-4-yl]-4-(5-methylsulfonylthiophen-2-yl) quinazoline]
< 10 nM | Cc1ccc(-c2n[nH]cc2-c2ccc3ncnc(-c4ccc(S(C)(=O)=O)s4)c3c2)cc1 [Example 890, 4-(5-Methylsulfonylthiophen-2-yl)-6-(3-p-tolyl-1H-pyrazol-4-yl) quinazoline]
10 to 100 nM | O=S(=O)(Nc1cccc(N2CCN(c3ncnc4ccc(-c5cn[nH]c5)cc34)CC2)c1)c1cccs1 [Example 993, Thiophene-2-sulfonic acid (3-{4-[6-(1H-pyrazol-4-yl)quinazolin-4-yl]piperazin-1-yl)phenyl)amide tri-trifluoroacetate]
10 to 100 nM | CS(=O)(=O)c1ccc(C(=O)C2CCN(c3ncnc4ccc(-c5cn[nH]c5)cc34)CC2)s1 [Example 880, (5-Methylsulfonylthiophen-2-yl)-{1-[6-(1H-pyrazol-4-yl)quinazolin-4-yl]piperidin-4-yl}methanone trihydrochloride]
10 to 100 nM | CN(CC(=O)c1ccc(F)cc1)S(=O)(=O)c1ccc(-c2ncnc3ccc(-c4c[nH]nc4-c4ccc(F)cc4)cc23)s1 [Example 866, 5-{6-[3-(4-Fluorophenyl)-1H-pyrazol-4-yl]quinazolin-4-yl}thiophen-2-sulfonic acid [2-(4-fluorophenyl) 2-oxoethyl]methylamide dihydrochloride]
10 to 100 nM | CS(=O)(=O)c1cccc(N2CCCN(c3ncnc4ccc(-c5cn[nH]c5)cc34)CC2)c1 [Example 1002, 4-{4-(3-Methylsulfonyl)phenyl}-1,4-diazepan-1-yl}-6-(1H-4-pyrazolyl)quinazoline hydrochloride]
< 10 nM | COc1ccc(-c2n[nH]cc2-c2ccc3ncnc(N4CCN(c5cccc(S(C)(=O)=O)c5)CC4)c3c2)cc1OC [Example 963, 6-[3-(3,4-Dimethoxyphenyl)-1H-pyrazol-4-yl]-4-[4-(3-methylsulfonylphenyl)piperazin-1-yl]-quinazoline tri-trifluoroacetate]
